In this experiment the target is T1, full length human recombinant glucocorticoid receptor (Homo sapiens, UniProt P04150).
T1 construct: partially purified full length human recombinant glucocorticoid receptor; purchased Panvera/Invitrogen PV4302
T1 sequence (P04150 1-777): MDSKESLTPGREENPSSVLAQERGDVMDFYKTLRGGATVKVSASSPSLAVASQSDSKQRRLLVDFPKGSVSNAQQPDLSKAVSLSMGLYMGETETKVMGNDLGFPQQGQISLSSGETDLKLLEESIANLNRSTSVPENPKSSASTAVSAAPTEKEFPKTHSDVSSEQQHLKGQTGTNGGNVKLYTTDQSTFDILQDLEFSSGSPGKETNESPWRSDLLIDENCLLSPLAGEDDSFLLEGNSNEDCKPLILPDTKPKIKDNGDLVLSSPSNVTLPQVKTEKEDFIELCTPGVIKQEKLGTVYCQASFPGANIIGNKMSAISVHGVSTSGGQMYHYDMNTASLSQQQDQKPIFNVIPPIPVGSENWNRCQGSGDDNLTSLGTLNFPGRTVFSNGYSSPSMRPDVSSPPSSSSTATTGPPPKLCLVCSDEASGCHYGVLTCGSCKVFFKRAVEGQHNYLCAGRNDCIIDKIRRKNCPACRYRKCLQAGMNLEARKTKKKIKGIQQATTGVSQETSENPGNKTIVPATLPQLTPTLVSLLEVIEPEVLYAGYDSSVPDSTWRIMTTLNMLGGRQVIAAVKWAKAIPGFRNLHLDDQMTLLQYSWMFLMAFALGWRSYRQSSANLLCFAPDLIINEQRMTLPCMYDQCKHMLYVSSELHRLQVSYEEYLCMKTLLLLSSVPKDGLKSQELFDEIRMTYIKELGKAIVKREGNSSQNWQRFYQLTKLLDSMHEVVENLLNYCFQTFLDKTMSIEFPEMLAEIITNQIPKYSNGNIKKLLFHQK
The experiment can be described thus: Glucocorticoid Receptor Binding Assay (fluorescence polarization competitor assay, Fluormone GS Far Red tracer). An outline of the steps:
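Serially diluted compounds competed with the tight-binding far-red fluorescent ligand for recombinant full-length human glucocorticoid receptor plus GR-stabilizing peptide (screening buffer pH 7.4; 3 h, 22 °C, dark). Polarization (610-660 nm) gave IC50 via sigmoidal dose-response fits, and Ki was derived by Cheng-Prusoff from tracer concentration and Kd.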
The Ki is a measure of affinity in units of concentration, obtained from inhibition or displacement. As to `C[C@H](c1ccc(Oc2cnc(C(=O)O)cn2)c(Cl)c1Cl)[C@@](O)(c1ccc(=O)n(C)c1)C(F)(F)F` (stereo in doubt) [Example 238, 5-{2,3-Dichloro-4-[3,3,3-trifluoro-2-hydroxy-1-methyl-2-(1-methyl-6-oxo-1,6-dihydro-pyridin-3-yl)-propyl]-phenoxy}-pyrazine-2-carboxylic acid], the Ki amounted to 112 nM.
`C[C@@H](c1ccc(OC(C)(C)C(=O)O)c(Cl)c1Cl)[C@](O)(c1ccc(=O)n(C)c1)C(F)(F)F` (stereo in doubt) [Example 240, 2-{2,3-Dichloro-4-[3,3,3-trifluoro-2-hydroxy-1-methyl-2-(1-methyl-6-oxo-1,6-dihydro-pyridin-3-yl)-propyl]-phenoxy}-2-methyl-propionic acid]: the inhibitory constant (Ki) worked out at 82.2 nM.
In the case of `COC(=O)c1cnc(Oc2ccc([C@H](C)[C@](O)(c3cc(C)c(=O)n(C)c3)C(F)(F)F)c(Cl)c2)nc1C(F)(F)F` (stereo in doubt) [Example 242, 2-{3-Chloro-4-[2-(1,5-dimethyl-6-oxo-1,6-dihydro-pyridin-3-yl)-3,3,3-trifluoro-2-hydroxy-1-methyl-propyl]-phenoxy}-4-trifluoromethyl-pyrimidine-5-carboxylic acid methyl ester] it was 2.7 nM; in that of `Cc1cc([C@@](O)([C@@H](C)c2ccc(Oc3ncc(C(=O)O)c(C(F)(F)F)n3)cc2Cl)C(F)(F)F)cn(C)c1=O` (stereo in doubt) [Example 243, 2-{3-Chloro-4-[2-(1,5-dimethyl-6-oxo-1,6-dihydro-pyridin-3-yl)-3,3,3-trifluoro-2-hydroxy-1-methyl-propyl]-phenoxy}-4-trifluoromethyl-pyrimidine-5-carboxylic acid], 1.8 nM.
In the case of `COC(=O)c1cnc(Oc2ccc([C@H](C)[C@](O)(c3cc(C)c(=O)n(C)c3)C(F)(F)F)c(Cl)c2)c(Cl)c1` (stereo in doubt) [Example 250, 5-Chloro-6-{3-chloro-4-[2-(1,5-dimethyl-6-oxo-1,6-dihydro-pyridin-3-yl)-3,3,3-trifluoro-2-hydroxy-1-methyl-propyl]-phenoxy}-nicotinic acid methyl ester] it was 3 nM; in that of `Cc1cc([C@@](O)([C@@H](C)c2ccc(Oc3ncc(C(=O)O)cc3Cl)cc2Cl)C(F)(F)F)cn(C)c1=O` (stereo in doubt) [Example 251, 5-Chloro-6-{3-chloro-4-[2-(1,5-dimethyl-6-oxo-1,6-dihydro-pyridin-3-yl)-3,3,3-trifluoro-2-hydroxy-1-methyl-propyl]-phenoxy}-nicotinic acid], 0.5 nM.
Turning to `Cc1cc([C@@](O)([C@@H](C)c2ccc(Oc3ncc(C(=O)O)cn3)cc2Cl)C(F)(F)F)cn(C)c1=O` (stereo in doubt) [Example 254, 2-{3-Chloro-4-[2-(1,5-dimethyl-6-oxo-1,6-dihydro-pyridin-3-yl)-3,3,3-trifluoro-2-hydroxy-1-methyl-propyl]-phenoxy}-pyrimidine-5-carboxylic acid], the Ki was 9.5 nM.
Then `Cc1nc(Oc2ccc([C@H](C)[C@](O)(c3cc(C)c(=O)n(C)c3)C(F)(F)F)c(Cl)c2)ccc1C(=O)O` (stereo in doubt) [Example 255, 6-{3-Chloro-4-[2-(1,5-dimethyl-6-oxo-1,6-dihydro-pyridin-3-yl)-3,3,3-trifluoro-2-hydroxy-1-methyl-propyl]-phenoxy}-2-methyl-nicotinic acid], with 3.6 nM; and `Cc1cnc(C(O)(C(C)c2ccc(OCc3ccc(C(=O)O)cc3)cc2Cl)C(F)(F)F)cn1` (stereo not shown) [Example 2, 4-{3-Chloro-4-[3,3,3-trifluoro-2-hydroxy-1-methyl-2-(5-methyl-pyrazin-2-yl)-propyl]-phenoxymethyl}-benzoic acid], with 21.5 nM; and `COC(=O)c1cccc(COc2ccc(C(C)C(O)(c3cnc(C)cn3)C(F)(F)F)c(Cl)c2)c1` (stereo not shown) [Example 3, 3-{3-Chloro-4-[3,3,3-trifluoro-2-hydroxy-1-methyl-2-(5-methyl-pyrazin-2-yl)-propyl]-phenoxymethyl}-benzoic acid methyl ester], with 52.7 nM.
Then `Cc1cnc(C(O)(C(C)c2ccc(OCc3cccc(C(=O)O)c3)cc2Cl)C(F)(F)F)cn1` (stereo not shown) [Example 4, 3-{3-Chloro-4-[3,3,3-trifluoro-2-hydroxy-1-methyl-2-(5-methyl-pyrazin-2-yl)-propyl]-phenoxymethyl}-benzoic acid], with 175 nM.
In the case of `CCOC(=O)c1ccc(COc2ccc([C@@H](C)[C@@](O)(c3cnc(C)cn3)C(F)(F)F)c(Cl)c2)cc1` [Example 5, 4-{3-Chloro-4-[(1R,2R)-3,3,3-trifluoro-2-hydroxy-1-methyl-2-(5-methyl-pyrazin-2-yl)-propyl]-phenoxymethyl}-benzoic acid ethyl ester] it was 418 nM; in that of `Cc1cnc([C@](O)([C@H](C)c2ccc(OCc3ccc(C(=O)O)cc3)cc2Cl)C(F)(F)F)cn1` [Example 6, 4-{3-Chloro-4-[(1R,2R)-3,3,3-trifluoro-2-hydroxy-1-methyl-2-(5-methyl-pyrazin-2-yl)-propyl]-phenoxymethyl}-benzoic acid], 8.2 nM.
`COC(=O)c1ccc(OCCOc2ccc(C(C)C(O)(c3cnc(C)cn3)C(F)(F)F)c(Cl)c2)cc1` (stereo not shown) [Example 9, 4-(2-{3-Chloro-4-[3,3,3-trifluoro-2-hydroxy-1-methyl-2-(5-methyl-pyrazin-2-yl)-propyl]-phenoxy}-ethoxy)-benzoic acid methyl ester]: the inhibition constant (Ki) came out at 119 nM.
Then `Cc1cnc(C(O)(C(C)c2ccc(OCCOc3ccc(C(=O)O)cc3)cc2Cl)C(F)(F)F)cn1` (stereo not shown) [Example 10, 4-(2-{3-Chloro-4-[3,3,3-trifluoro-2-hydroxy-1-methyl-2-(5-methyl-pyrazin-2-yl)-propyl]-phenoxy}-ethoxy)-benzoic acid], with 307 nM; and `Cc1cc(C(O)(C(C)c2ccc(Oc3ccc(C(=O)O)cc3)cc2Cl)C(F)(F)F)ccn1` (stereo not shown) [Example 58, 4-{3-Chloro-4-[3,3,3-trifluoro-2-hydroxy-1-methyl-2-(2-methyl-pyridin-4-yl)-propyl]-phenoxy}-benzoic acid], with 2.4 nM.
In the case of `Cc1cc(C(O)(C(C)c2ccc(Oc3cccc(C(=O)O)c3)cc2Cl)C(F)(F)F)ccn1` (stereo not shown) [Example 59, 3-{3-Chloro-4-[3,3,3-trifluoro-2-hydroxy-1-methyl-2-(2-methyl-pyridin-4-yl)-propyl]-phenoxy}-benzoic acid] it was 11.2 nM; in that of `Cc1cc(C(O)(C(C)c2ccc(-c3cccc(C(=O)O)c3)cc2Cl)C(F)(F)F)ccn1` (stereo not shown) [Example 61, 3′-Chloro-4′-[3,3,3-trifluoro-2-hydroxy-1-methyl-2-(2-methyl-pyridin-4-yl)-propyl]-biphenyl-3-carboxylic acid], 4.9 nM; in that of `Cc1cc(C(O)(C(C)c2ccc(-c3ccc(C(=O)O)cn3)cc2Cl)C(F)(F)F)ccn1` (stereo not shown) [Example 62, 6-{3-Chloro-4-[3,3,3-trifluoro-2-hydroxy-1-methyl-2-(2-methyl-pyridin-4-yl)-propyl]-phenyl}-nicotinic acid], 335 nM.
Then `Cc1cc(C(O)(C(C)c2ccc(-c3cccc(CC(=O)O)c3)cc2Cl)C(F)(F)F)ccn1` (stereo not shown) [Example 63, {3′-Chloro-4′-[3,3,3-trifluoro-2-hydroxy-1-methyl-2-(2-methyl-pyridin-4-yl)-propyl]-biphenyl-3-yl}-acetic acid], with 6.4 nM; and `Cc1cc(C(O)(C(C)c2ccc(-c3ccc(CC(=O)O)cc3)cc2Cl)C(F)(F)F)ccn1` (stereo not shown) [Example 64, {3′-Chloro-4′-[3,3,3-trifluoro-2-hydroxy-1-methyl-2-(2-methyl-pyridin-4-yl)-propyl]-biphenyl-4-yl}-acetic acid], with 66.3 nM; and `Cc1cc(C(O)(C(C)c2ccc(-c3ccc(C(=O)O)nc3)cc2Cl)C(F)(F)F)ccn1` (stereo not shown) [Example 65, 5-{3-Chloro-4-[3,3,3-trifluoro-2-hydroxy-1-methyl-2-(2-methyl-pyridin-4-yl)-propyl]-phenyl}-pyridine-2-carboxylic acid], with 214 nM.
Regarding `Cc1cc(C(O)(C(C)c2ccc(/C=C/c3ccc(C(=O)O)cc3)cc2Cl)C(F)(F)F)ccn1` (stereo not shown) [Example 66, 4-((E)-2-{3-Chloro-4-[3,3,3-trifluoro-2-hydroxy-1-methyl-2-(2-methyl-pyridin-4-yl)-propyl]-phenyl}-vinyl)-benzoic acid], the Ki was 4.4 nM.
In the case of `Cc1cc(C(O)(C(C)c2ccc(CCc3ccc(C(=O)O)cc3)cc2Cl)C(F)(F)F)ccn1` (stereo not shown) [Example 67, 4-(2-{3-Chloro-4-[3,3,3-trifluoro-2-hydroxy-1-methyl-2-(2-methyl-pyridin-4-yl)-propyl]-phenyl}-ethyl)-benzoic acid] it was 24.4 nM.
In the case of `CC(c1ccc(NC(=O)c2ccc(C(=O)O)cc2)cc1Cl)C(O)(c1ccnc(Cl)c1)C(F)(F)F` (stereo not shown) [Example 69, N-{3-Chloro-4-[2-(2-chloro-pyridin-4-yl)-3,3,3-trifluoro-2-hydroxy-1-methyl-propyl]-phenyl}-terephthalamic acid] it was 116 nM.

Values taken from patent US8138189B2, “Substituted benzene compounds as modulators of the glucocorticoid receptor” (Hoffman-La Roche Inc., priority 2009, dated 2012).
